The values below are quoted from earlier work in publication PMC8273890, “Development of [^18F]AldoView as the First Highly Selective Aldosterone Synthase PET Tracer for Imaging of Primary Hyperaldosteronism” (Journal of Medicinal Chemistry, 2021).

In one data set the test system is human CYP11B2. On the set-up: method as in PMID 26005536. The conditions noted are these: cited from earlier work.
A further data set deals with hCYP11B1. On the set-up: method as in PMID 26005536. The conditions noted are these: read-out: IC50 CYP11B1; cited from earlier work.

A word on the IC50: it is the midpoint of a concentration-inhibition curve. As to `Fc1cncc(-c2nc3cc(F)c(F)cc3n2C2CC2)c1` [Compound 3, 1-Cyclopropyl-5,6-difluoro-2-(5-fluoropyridin-3-yl)-1H-benzo[d]imidazole, reference compound], the half-maximal inhibitory concentration (IC50) in the data set on human CYP11B2 is 0.0047 µM; with hCYP11B1, 0.435 µM.
